{"source": "patent US8067042B1", "about": "(Mutual Pharmaceutical Company, Inc., priority 2007, dated 2011)", "key": {"CYP2D6": {"target": "CYP2D6 (Homo sapiens, UniProt P10635)", "sequence (P10635 whole entry)": "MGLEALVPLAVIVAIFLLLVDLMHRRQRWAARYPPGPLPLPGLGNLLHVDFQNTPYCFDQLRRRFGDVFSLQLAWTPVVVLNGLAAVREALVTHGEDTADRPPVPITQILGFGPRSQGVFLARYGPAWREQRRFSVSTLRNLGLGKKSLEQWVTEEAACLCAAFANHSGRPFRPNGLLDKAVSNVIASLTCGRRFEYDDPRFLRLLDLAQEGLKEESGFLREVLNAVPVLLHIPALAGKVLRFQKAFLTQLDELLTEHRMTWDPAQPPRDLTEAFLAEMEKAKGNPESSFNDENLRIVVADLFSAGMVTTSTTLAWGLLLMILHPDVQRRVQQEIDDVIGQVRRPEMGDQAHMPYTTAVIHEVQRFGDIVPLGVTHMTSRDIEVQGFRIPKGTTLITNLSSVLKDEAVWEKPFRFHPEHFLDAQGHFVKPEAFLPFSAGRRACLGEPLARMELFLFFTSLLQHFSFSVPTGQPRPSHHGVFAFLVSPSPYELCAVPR", "experimental": "The stock solutions were added to incubation mixtures to obtain the final concentrations of 5 and 50 μM, each containing 1% acetonitrile.\nAfter a 5 minute preincubation, nicotinamide adenine dinucleotide phosphate (NADPH) regenerating system (NRS; 1.7 mg/mL β-NADP, 7.8 mg/mL glucose-6-phosphate, and 6 units/mL glucose-6-phosphate dehydrogenase in 2% sodium bicarbonate solution) was added to initiate the reaction. The final incubation volume was 0.5 mL. Incubations were continued for 60 minutes.\nAll incubations were conducted at 37±1° C. in a shaking water bath. All incubations were carried out in triplicates.\nAfter a 5-minute preincubation, 2% sodium bicarbonate solution was added to the incubation mixtures. The final incubation volume was 0.5 mL. Incubations were continued for 60 minutes.\nIncubation reactions, including the matrix controls and metabolic negative controls, were terminated by adding 0.5 mL methanol.\nThe samples were analyzed on a Supelcosil LC-18 column (3μ, 120 Å, 3.0×100 mm)."}, "CYP2B6": {"target": "T1, CYP2B6 (Homo sapiens, UniProt P20813)", "T1 sequence (P20813 1-491)": "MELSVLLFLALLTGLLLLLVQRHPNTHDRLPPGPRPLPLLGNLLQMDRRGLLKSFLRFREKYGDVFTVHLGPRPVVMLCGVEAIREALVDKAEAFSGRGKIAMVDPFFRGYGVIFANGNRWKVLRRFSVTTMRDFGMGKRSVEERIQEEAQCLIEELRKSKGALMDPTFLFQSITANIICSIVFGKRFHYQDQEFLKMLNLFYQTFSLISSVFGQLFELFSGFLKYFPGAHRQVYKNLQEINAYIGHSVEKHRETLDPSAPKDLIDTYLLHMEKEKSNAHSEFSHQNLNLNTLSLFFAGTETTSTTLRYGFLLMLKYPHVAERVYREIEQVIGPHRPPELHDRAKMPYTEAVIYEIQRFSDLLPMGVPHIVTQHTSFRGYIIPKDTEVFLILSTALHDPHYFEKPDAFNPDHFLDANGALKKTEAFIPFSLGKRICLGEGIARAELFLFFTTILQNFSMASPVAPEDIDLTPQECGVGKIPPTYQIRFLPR", "settings": "50 μM (with 1% methanol)", "procedure": "All incubations were carried out in triplicates."}}}
{"smiles": "CC(=O)O[C@]1(C(C)=O)CC[C@H]2[C@@H]3C=C(C)C4=CC(=O)CC[C@]4(C)[C@H]3CC[C@@]21C", "note": "[Megestrol Acetate, 17 α-acetyloxy-6-methylpregna-4,6-diene-3,20-dione]", "values": [{"measurement": "percent metabolized in presence vs absence of inhibitor (unpaired two-tailed t-test)", "setting": "CYP2D6", "value": "not different from the percentage of megestrol acetate metabolized in the absence of the inhibitor"}, {"measurement": "metabolized in pooled human liver microsomes", "setting": "CYP2D6; human, microsomes, 60 min, pH 7.4", "value": "> 20", "unit": "%"}, {"measurement": "Percent of Parent Disappearance Individual", "setting": "CYP2B6", "value": 54.8, "unit": "%"}]}
